Test results as given in patent US10030016B2 (Sunesis Pharmaceuticals, Inc., priority 2009, dated 2018).
pEC50, pIC50: −log10 of the molar value. Structures can show the parent of a compound that is named as a salt. Where two headings read alike, the source gives them in different places.

Key:
PDK1 = PDK1 (Homo sapiens (Human), UniProt O15530); experiment: PDK1 kinase assay (coupled PDK1/AKT/FAM-crosstide assay, IMAP fluorescence polarization); assay type: biochemical
Experimental: A PDK1 kinase assay was performed as follows. PDK1 (amino acids 51-359) and AKT2 (amino acids 140-467 fused to PIFtide, amino acids […]) were expressed as N-terminally tagged GST fusion proteins in insect cells and purified to homogeneity. Enzyme activity was determined in a coupled PDK1/AKT/FAM-crosstide assay and phosphorylation of FAM-crosstide was determined by standard IMAP protocol (Molecular Devices). For inhibition studies, compounds were titrated 4-fold in DMSO and diluted 40-fold into assay buffer (10 mM Tris HCl pH7.2; 10 mM MgCl2; 0.01% Triton X-100; 1 mM DTT) containing PDK1, AKT2, and FAM-crosstide (final concentrations: 0.75 nM PDK1, 10 nM unphosphorylated AKT2, and 100 nM crosstide substrate). The kinase reaction was initiated by adding ATP to a final concentration of 40 μM of PDK1 and incubated at 25° C. for 30 min. To detect assay product, the kinase reaction was combined with Progressive Binding Solution (1:600 Progressive Binding Reagent, 50% Buffer A, 50% Buffer B, Molecular Devices) in a 1:3 ratio. The mixture was incubated for 2 hours at 25° C. and the plate was scanned on an Analyst AD with excitation at 485 nm and emission at 530 nm. The fluorescence polarization value “P” is defined by the equation below. The value “mP” is generated by multiplying the P value for each reaction well by a factor of 1000. The value “ΔmP” for each well is the mP value for that well minus the mP value for the average negative control. P=(Fpar−Fperp)/(Fpar+Fperp) Eq.:
Where “par” is fluorescence intensity parallel to the excitation plane; and “perp” is fluorescence intensity perpendicular to the excitation plane. ΔmP values were plotted as a function of compound concentration and the data were analyzed with a 4-parameter fit using GraphPad Prism software.

[1] = test system: phospho-akt (Thr308) in PC-3 cells; experiment: Inhibition of phospho-akt (Thr308) in PC-3 cells, MSD phospho-akt 308 ELISA kit; assay type: cell-based; conditions: 2 hours, no serum, read-out: EC50
Outline: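 Read-out is MSD electrochemiluminescence of Akt phosphorylated at Thr308 in lysates of PC-3 cells treated 2 h with compound in serum-free medium. Wortmannin at 5 μM defined the low control and DMSO the high control.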

[2] = inhibition of phospo-PDK1 in vitro
[3] = Homo sapiens, inhibition of P308 Akt in PC-3 cells, MSD
[4] = Homo sapiens, inhibition of P308 Akt in PC-3 cells using MSD

Chain of PDK1 (O15530 51-359): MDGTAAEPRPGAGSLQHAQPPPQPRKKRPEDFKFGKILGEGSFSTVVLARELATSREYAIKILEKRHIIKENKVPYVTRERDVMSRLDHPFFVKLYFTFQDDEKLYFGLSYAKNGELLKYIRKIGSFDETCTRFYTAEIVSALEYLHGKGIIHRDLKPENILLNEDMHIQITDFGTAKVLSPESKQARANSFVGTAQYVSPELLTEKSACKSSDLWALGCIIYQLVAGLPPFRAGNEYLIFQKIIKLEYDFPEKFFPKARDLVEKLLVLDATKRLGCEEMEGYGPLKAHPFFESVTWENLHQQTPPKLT

| SMILES | pIC50 (PDK1; [2]) | pEC50 [1, 3] | pIC50 (PDK1; inhibition of PDK1 in vitro) | pEC50 [1, 4] | other results |
| --- | --- | --- | --- | --- | --- |
| Nc1ncnc2ccc(-c3ccc(CNc4ncccc4C(=O)Nc4ccc(C(F)(F)F)cc4)s3)cc12 [Example 3.26, 2-({[5-(4-aminoquinazolin-6-yl)thiophen-2-yl]methyl}amino)-N-[4-(trifluoromethyl)phenyl] pyridine-3-carboxamide (TFA salt)] | < 5.30 | < 5.00 | – | – | – |
| Nc1cnc(NCc2ccc(-c3ccc4ncnc(N)c4c3)s2)c(C(=O)NCc2ccc(F)c(F)c2)c1 [Ex. 8.4, 2-({[5-(4-aminoquinazolin-6-yl)thiophen-2-yl]methyl}amino)-N-(3,4-difluorobenzyl)-5-aminopyridine-3-carboxamide] | > 7.00 | 5.00 to 6.00 | – | – | – |
| C[C@H](NC(=O)c1cccnc1NCc1ccc(-c2ccc3ncnc(N)c3c2)s1)c1cncc(F)c1 [Example 3.59, (S)-2-(((5-(4-aminoquinazolin-6-yl)thiophen-2-yl)methyl)amino)-N-(1-(5-(fluoropyridin-3-yl)ethyl)nicotinamide (TFA salt)] | > 7.00 | 5.00 to 6.00 | – | – | – |
| Nc1ncnc2ccc(-c3ccc(CNc4ncccc4C(=O)NCc4ccc(Cl)c(Cl)c4)s3)cc12 [Example 3.29, 2-({[5-(4-aminoquinazolin-6-yl)thiophen-2-yl]methyl}amino)-N-(3,4-dichlorobenzyl) pyridine-3-carboxamide (TFA salt)] | 6.00 to 7.00 | 5.00 to 6.00 | – | – | – |
| C[C@H](NC(=O)c1cccnc1NCc1ccc(-c2ccc3ncnc(N)c3c2)s1)c1cc(F)cc(F)c1 [Example 3.62, (S)-2-(((5-(4-aminoquinazolin-6-yl)thiophen-2-yl)methyl)amino)-N-(1-(3,5-difluorophenyl)ethyl) nicotinamide (TFA salt)] | > 7.00 | 5.00 to 6.00 | – | – | – |
| Cc1ccc(F)cc1CNC(=O)c1cccnc1NCc1ccc(-c2ccc3ncnc(N)c3c2)s1 [Example 3.18, 2-({[5-(4-aminoquinazolin-6-yl)thiophen-2-yl]methyl}amino)-N-(5-fluoro-2-methylbenzyl) pyridine-3-carboxamide (TFA salt)] | 6.00 to 7.00 | < 5.00 | – | – | – |
| Cc1nc2cnc3ccc(-c4ccc(CNc5ncccc5C(=O)N[C@@H](C)c5ccc(F)cc5)s4)cc3c2n1C [Example 2.19, (S)-2-(((5-(1,2-dimethyl-1H-imidazo[4,5-c]quinolin-8-yl)thiophen-2-yl)methyl)amino) N-(1-(4-fluorophenyl)ethyl) nicotinamide] | 6.00 to 7.00 | > 6.00 | – | – | – |
| C[C@H](NC(=O)c1cc(C#N)cnc1NCc1ccc(-c2cnc3[nH]ncc3c2)cc1)c1ccc(F)cc1 [Example 2.36, 5-Cyano-N-[(S)-1-(4-fluoro-phenyl)-ethyl]-2-[4-(1H-pyrazolo[3,4-]pyridin-5-yl)-benzylamino]-nicotinamide] | > 7.00 | – | – | – | pEC50 ([1]; inhibition of P308 Akt in PC-3 cells, MSD): > 6.00 |
| Nc1ncnc2ccc(-c3ccc(CNc4ncsc4C(=O)NCc4ccc(F)c(F)c4)s3)cc12 [Ex. 12.1] | > 7.00 | < 5.00 | – | – | – |
| Nc1ncnc2ccc(-c3nc(CNc4ncccc4C(=O)NCc4ccc(F)c(F)c4)cs3)cc12 [Ex. 6.8, 2-({[2-(4-aminoquinazolin-6-yl)-1,3-thiazol-4-yl]methyl}amino)-N-(3,4-difluoro-benzyl) pyridine-3-carboxamide] | > 7.00 | < 5.00 | – | – | – |

Second part, led by results:

| pIC50 (PDK1; [2]) | pEC50 [1, 3] | pIC50 (PDK1; inhibition of PDK1 in vitro) | pEC50 [1, 4] | SMILES | other results |
| --- | --- | --- | --- | --- | --- |
| < 5.30 | < 5.00 | – | – | Cc1ccc(Nc2ncccc2C(=O)NCc2ccc(F)c(F)c2)cc1-c1ccc2c(c1)CNC2=O [Example 17.2] | – |
| > 7.00 | > 6.00 | – | – | C[C@H](NC(=O)c1cc(C#N)cnc1NC/C=C/c1ccc2c(c1)NC(=O)/C2=C\c1cnc[nH]1)c1ccc(F)cc1 [Example 15.4, 2-((E)-3-((Z)-3-((1H-imidazol-5-yl)methylene)-2-oxoindolin-6-yl)allylamino)-5-cyano-N-((S)-1-(4-fluorophenyl)ethyl)nicotinamide] | – |
| – | – | 6.00 to 7.00 | – | C[C@H](NC(=O)c1cc(C#N)cnc1N[C@H](CC(=O)N(C)C)c1ccc(-c2c[nH]c3ncnc(N)c23)cc1)c1ccc(F)cc1 [Example 48, 2-((R)-1-(4-(4 - amino-7H-pyrrolo[2,3-d]pyrimidin-5-yl)phenyl)-3-(dimethylamino)-3-oxopropylamino)-5-cyano-N-((S)-1-(4-fluorophenyl)ethyl)nicotinamide] | pEC50 ([1]; Homo sapiens, PC-3, 2 h, inhibition of P308 Akt in PC-3 cells using MSD): 5.00 to 6.00 |
| < 5.30 | < 5.00 | – | – | C[C@H](NC(=O)c1cccnc1NCc1ccc(-c2ccc3nccnc3c2)s1)c1ccc(F)c(F)c1 [Example 4.31] | – |
| > 7.00 | > 6.00 | – | – | C[C@H](NC(=O)c1nc(C#N)cnc1NCc1ccc(-c2cnc3[nH]nc(N)c3c2)cc1)c1ccc(F)c(F)c1 [Example 25, (S)-3-(4-(3-amino-1H-pyrazolo[3,4-b]pyridin-5-yl)benzylamino)-6-cyano-N-(1-(3,4-difluorophenyl)ethyl)pyrazine-2-carboxamide] | – |
| – | – | > 7.00 | 5.00 to 6.00 | Cc1cc(CNc2ncc(C#N)cc2C(=O)N[C@@H](C)c2ccc(F)cc2)ccc1-c1cnc2[nH]nc(N)c2c1 [Example 408, 2-[4-(3-Amino-1H-pyrazolo [3,4-b]pyridin-5-yl)-3-methyl-benzylamino]-5-cyano-N-[(S)-1-(4-fluoro-phenyl)-ethyl]-nicotinamide] | – |
| – | – | > 7.00 | > 6.00 | C[C@H](NC(=O)c1cc(C#N)cnc1N[C@H](C)c1ccc(-c2cnc3[nH]nc(N)c3n2)cc1)c1ccc(F)cc1 [Example 435, 2-{(R)-1-[4-(3-Amino-1H-pyrazolo[3,4-b]pyrazin-5-yl)-phenyl]-ethylamino}-5-cyano-N-[(S)-1-(4-fluoro-phenyl)-ethyl]-nicotinamide] | – |
| – | – | > 7.00 | > 6.00 | C[C@H](NC(=O)c1nc(C#N)cnc1NCc1ccc(-c2cnc(N)c(NCCN)n2)cc1)c1ccc(F)c(F)c1 [Example 195, 3-{4-[5-Amino-6-(2-amino-ethylamino)-pyrazin-2-yl]-benzylamino}-6-cyano-pyrazine-2-carboxylic acid [(S)-1-(3,4-difluoro-phenyl)-ethyl]-amide] | – |
| – | – | > 7.00 | > 6.00 | C[C@H](NC(=O)c1nc(C#N)cnc1NCc1ccc(-c2c[nH]c3ncnc(N)c23)cc1)c1ccc(F)c(F)c1 [Example 315, (S)-3-(4-(4-amino-7H-pyrrolo[2,3-d]pyrimidin-5-yl)benzylamino)-6-cyano-N-(1-(3,4-difluoro-phenyl)ethyl)pyrazine-2-carboxamide] | – |
| < 5.30 | 5.00 to 6.00 | – | – | Cn1cnc2cnc(-c3ccc(CNc4ncccc4C(=O)NCc4ccc(F)c(F)c4)s3)cc21 [Example 8.14.3, N-(3,4-difluorobenzyl)-2-({[5-(1-methyl-1H-imidazo [4,5-c]pyridin-6-yl)thiophen-2-yl]methyl}amino)pyridine-3-carboxamide] | – |
| – | – | > 7.00 | 5.00 to 6.00 | C[C@@H](Nc1ncc(C(F)(F)F)cc1C(=O)Nc1ccc(F)cc1)c1ccc(-c2cn(C)c3ncnc(N)c23)cc1 [Example 403, (R)-2-(1-(4-(4-amino-7-methyl-7H-pyrrolo[2,3-d]pyrimidin-5-yl)phenyl)ethylamino)-N-(4-fluoro-phenyl)-5-(trifluoromethyl) nicotinamide] | – |
| – | – | 6.00 to 7.00 | < 5.00 | Nc1n[nH]c2ncc(-c3ccc(CNc4ncc(C(F)(F)F)cc4C(=O)N[C@H](CO)c4ccc(F)cc4)cc3)cc12 [Example 266] | – |
| – | – | > 7.00 | > 6.00 | C[C@H](NC(=O)c1cc(C#N)cnc1NCc1ccc(-c2cnc3[nH]cnc3c2)cc1)c1ccc(F)cc1 [Example 135, (S)-2-(4-(3H-imidazo [4,5-b]pyridin-6-yl)benzylamino)-5-cyano-N-(1-(4-fluorophenyl)ethyl)nicotinamide] | – |
| – | – | > 7.00 | 5.00 to 6.00 | C[C@H](NC(=O)c1cc(C#N)cnc1NCc1ccc(-c2cnc(N)cn2)cc1F)c1ccc(F)cc1 [Example 130, (S)-2-(4-(5-aminopyrazin-2-yl)-2-fluorobenzylamino)-5-cyano-N-(1-(4-fluorophenyl)ethyl) nicotinamide] | – |
| > 7.00 | > 6.00 | – | – | Cc1nc(/C=C2\C(=O)Nc3cc(/C=C/CNc4ncccc4C(=O)NCc4ccc(F)c(F)c4)ccc32)c[nH]1 [Example 15.8, N-(3,4-Difluoro-benzyl)-2-((E)-3-{3-[1-(2-methyl-1H-imidazol-4-yl)-meth-(Z)-ylidene]-2-oxo-2,3-dihydro-1H-indol-6-yl}-allylamino)-nicotinamide] | – |
